Results on 1 compound are retold here after EP0902002A1, “New derivatives of phthalaldehyde, process for their preparation and their use” (Hoechst Marion Roussel Deutschland GmbH, priority 1997, dated 1999).

The structures appear in SMILES notation.

This series can be described thus: Physicochemical properties: solubility and pH stability.

As to `CC(CCc1c(O)cc(C=O)c(C=O)c1O)C(=O)O` (stereo not drawn) [Hericenal C], the Löslichkeit result (in Alkoholen und anderen polaren organischen Lösungsmitteln) is on record as “lösliche”. The Stabilität entry (in neutralem und mild saurem Milieu (vorzugsweise > pH 2)) is listed as “stabil” and the Stabilität result (in stark alkalischer Lösung (beispielsweise > pH 8)) is listed as “unbeständig”.
